Values quoted from earlier work as cited in US20230172901A1, “COMPOSITIONS AND METHODS FOR THE PROPHYLAXIS AND TREATMENT OF FIBROTIC AND INFLAMMATORY CONDITIONS” (GRETALS AUSTRALIA PTY LTD, priority 2020, published 2023).

System: IPF patients
Conditions: prior art, cited from earlier work

Structure (SMILES)	quality of life / respiratory parameters (IPF patients)	survival (IPF patients)	progression-free survival (IPF patients)	side effects
COC(=O)c1ccc2c(c1)NC(=O)/C2=C(\Nc1ccc(N(C)C(=O)CN2CCN(C)CC2)cc1)c1ccccc1 [Nintendanib]	can improve quality of life	do not improve survival	–	–
Cc1ccc(=O)n(-c2ccccc2)c1 [Perfenidone]	–	–	improve progression-free survival	provokes a range of side effects in the skin, gastrointestinal tract, liver, and nervous system
